Columns and labels:
HepG2 = assay: Cytotoxicity against human HepG2 cells after 48 hrs by MTT assay; format: functional, cell-based; conditions: HepG2, 48 h
[1] = Cytotoxicity against p53 deficient human HCT116 cells after 48 hrs by MTT assay; format: functional, cell-based; conditions: HCT-116, 48 h
[2] = Cytotoxicity against p53 expressing human HCT116 cells after 48 hrs by MTT assay; format: functional, cell-based; conditions: HCT-116, 48 h
HEK293 = assay: Cytotoxicity against HEK293 cells after 48 hrs by MTT assay; format: cell-based; conditions: Homo sapiens, HEK293, 48 h
MCF7 [3] = assay: Cytotoxicity against human MCF7 cells after 48 hrs by MTT assay; format: functional, cell-based; conditions: MCF7, 48 h
SiHa = assay: Cytotoxicity against human SiHa cells after 48 hrs by MTT assay; format: functional, cell-based
MCF7 [4] = assay: Cytotoxicity against human MCF7 cells after 120 hrs by MTT assay; format: functional; conditions: MCF7, 120 h
[5] = target: Tumour suppressor p53/oncoprotein Mdm2 (Homo sapiens, UniProt Q00987); assay: Inhibition of MDM2/P53 (unknown origin) protein interaction by fluorescent polarization assay
Sequence of Tumour suppressor p53/oncoprotein Mdm2 (P04637 whole entry): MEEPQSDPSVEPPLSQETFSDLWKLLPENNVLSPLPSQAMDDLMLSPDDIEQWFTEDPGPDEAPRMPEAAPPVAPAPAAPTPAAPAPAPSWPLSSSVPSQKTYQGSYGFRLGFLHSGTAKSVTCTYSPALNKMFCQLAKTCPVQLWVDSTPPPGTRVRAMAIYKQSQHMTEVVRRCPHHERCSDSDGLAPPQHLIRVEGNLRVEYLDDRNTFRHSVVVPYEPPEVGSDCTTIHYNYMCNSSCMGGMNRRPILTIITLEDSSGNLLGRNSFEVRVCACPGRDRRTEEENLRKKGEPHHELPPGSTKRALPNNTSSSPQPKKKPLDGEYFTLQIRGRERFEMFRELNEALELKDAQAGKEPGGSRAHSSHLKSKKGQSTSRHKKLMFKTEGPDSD
Sequence of Tumour suppressor p53/oncoprotein Mdm2 (Q00987 whole entry): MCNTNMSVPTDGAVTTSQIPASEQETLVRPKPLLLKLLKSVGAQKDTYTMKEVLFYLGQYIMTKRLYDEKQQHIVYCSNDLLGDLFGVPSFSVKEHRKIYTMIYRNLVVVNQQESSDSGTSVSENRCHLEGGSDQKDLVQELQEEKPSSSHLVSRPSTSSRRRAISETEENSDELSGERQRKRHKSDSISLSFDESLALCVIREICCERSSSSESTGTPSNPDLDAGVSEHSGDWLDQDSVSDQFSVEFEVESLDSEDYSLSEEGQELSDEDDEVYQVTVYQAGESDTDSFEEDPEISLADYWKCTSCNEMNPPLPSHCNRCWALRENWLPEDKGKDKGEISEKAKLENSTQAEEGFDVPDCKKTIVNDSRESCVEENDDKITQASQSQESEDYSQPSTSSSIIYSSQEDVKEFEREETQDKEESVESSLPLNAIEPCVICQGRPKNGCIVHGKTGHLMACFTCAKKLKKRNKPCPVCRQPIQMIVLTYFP

[6] = Homo sapiens, SiHa, 48 h, read-out: IC50

| Structure (SMILES) | IC50 (HepG2) [µM] | IC50 [1] [µM] | IC50 [2] [µM] | IC50 (HEK293) [µM] | IC50 (MCF7 [3]) [µM] | IC50 (SiHa; [6]) [µM] | IC50 (SiHa; siha) | CC50 (MCF7 [4]) [nM] | Ki [5] [nM] |
| --- | --- | --- | --- | --- | --- | --- | --- | --- | --- |
| CCc1ccc(C2CN(C)[C@]3(C(=O)Nc4ccccc43)[C@]23NC(=S)N(c2ccc(F)c(Cl)c2)C3=O)cc1 (stereo partly specified) | 33.9 | 8.45 | 8.6 | 12.5 | 19 | 42.5 | – | – | – |
| CN1CC(c2ccc(Cl)cc2)[C@@]2(NC(=S)N(c3ccc(F)c(Cl)c3)C2=O)[C@@]12C(=O)Nc1ccc(Br)cc12 (stereo partly specified) | 11.1 | 8.65 | 9.9 | 10.3 | 6.84 | 12.1 | – | – | – |
| CCOc1ccc(N2C(=O)[C@@]3(NC2=S)C(c2ccc(Cl)cc2)CN(C)[C@]32C(=O)Nc3ccc(Br)cc32)cc1 (stereo partly specified) | 42.1 | 16.3 | ≥ 50 | 28.6 | 34.9 | – | Not Active | – | – |
| CCOc1ccc(N2C(=O)[C@@]3(NC2=S)C(c2ccc(Cl)cc2)CN(C)[C@]32C(=O)Nc3ccccc32)cc1 (stereo partly specified) | 103 | 8.57 | 8.6 | 9.1 | 87.7 | 81.7 | – | – | – |
| CCOc1cc(C(C)(C)C)ccc1C1=N[C@@](C)(c2ccc(Cl)cc2)[C@@](C)(c2ccc(Cl)cc2)N1C(=O)N1CCN(CCS(C)(=O)=O)CC1 | – | – | – | – | – | – | – | 940 | – |
| CC(C)Oc1ccc(C2CN(C)[C@]3(C(=O)Nc4ccc(Br)cc43)[C@]23NC(=S)N(c2ccc(F)c(Cl)c2)C3=O)cc1 (stereo partly specified) | 34.6 | 19.4 | 38.8 | 15.8 | 34.9 | – | Not Active | – | – |
| CC(C)CC(N/C(C(=O)NCc1ccccc1)=C1\C(C(=O)NO)=Nc2cc(Cl)ccc21)C(=O)NO (stereo unspecified) | – | – | – | – | – | – | – | – | 900 |
| CN1CC(c2ccc(Cl)cc2)[C@@]2(NC(=S)N(c3ccc(F)c(Cl)c3)C2=O)[C@@]12C(=O)Nc1ccccc12 (stereo partly specified) | 9.08 | 7.33 | 7.78 | 5.68 | 4.88 | 7.65 | – | – | – |
| COc1ccc(C2=N[C@@H](c3ccc(Cl)cc3)[C@@H](c3ccc(Cl)cc3)N2C(=O)N2CCNC(=O)C2)c(OC(C)C)c1 [NUTLIN-3] | 5.1 | – | – | – | – | – | – | – | – |
| CCc1ccc(C2CN(C)[C@]3(C(=O)Nc4ccc(Br)cc43)[C@]23NC(=S)N(c2ccc(F)c(Cl)c2)C3=O)cc1 (stereo partly specified) | 23 | 33.5 | 11.6 | 15.6 | 15.5 | 79.1 | – | – | – |
| CC(C)Oc1ccc(C2CN(C)[C@]3(C(=O)Nc4ccccc43)[C@]23NC(=S)N(c2ccc(F)c(Cl)c2)C3=O)cc1 (stereo partly specified) | 49.9 | 7.4 | 8.55 | 13.5 | 20.2 | – | Not Active | – | – |

From ChEMBL document CHEMBL3351271, “Design, synthesis and biological evaluation of novel potent MDM2/p53 small-molecule inhibitors” (Bioorg Med Chem Lett, 2015)
